Reference: patent US11384063B2, “Modulators of estrogen receptor proteolysis and associated methods of use” (Arvinas Operations, Inc., priority 2017, dated 2022)

Columns and labels:
[1] = molecular target: T1, ERα (Homo sapiens, UniProt P03372); experiment: Estrogen receptor-alpha (ERα) degradation assay in MCF-7 cells using western blot; format: cell-based; design: assessed for their activity in degrading ERα in MCF-7 cells via western blot; endogenous in cells; host or cells: MCF7 cells; details: ER-alpha degradation, MCF7 cells, 3 days of incubation
T1 sequence (P03372 1-595): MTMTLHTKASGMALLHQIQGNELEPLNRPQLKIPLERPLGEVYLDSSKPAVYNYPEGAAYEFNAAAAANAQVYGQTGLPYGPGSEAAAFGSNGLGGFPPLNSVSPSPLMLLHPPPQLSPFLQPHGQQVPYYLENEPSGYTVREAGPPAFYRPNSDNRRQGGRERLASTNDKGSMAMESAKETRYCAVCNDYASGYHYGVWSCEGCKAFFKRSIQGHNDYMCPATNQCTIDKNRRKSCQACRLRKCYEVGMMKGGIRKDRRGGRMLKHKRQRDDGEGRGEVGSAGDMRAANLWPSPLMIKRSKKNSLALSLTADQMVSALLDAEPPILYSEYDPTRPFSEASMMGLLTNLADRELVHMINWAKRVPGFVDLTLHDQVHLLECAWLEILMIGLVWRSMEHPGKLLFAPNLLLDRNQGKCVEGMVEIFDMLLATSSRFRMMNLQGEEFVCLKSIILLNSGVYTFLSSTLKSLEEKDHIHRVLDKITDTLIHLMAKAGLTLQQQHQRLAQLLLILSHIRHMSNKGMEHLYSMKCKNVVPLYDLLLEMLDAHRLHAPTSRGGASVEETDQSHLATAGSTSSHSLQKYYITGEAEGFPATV
Summary of the method: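 MCF7 cells in DMEM/F12 with 10% FBS were treated with compounds at 0.3–100 nM (7-point) or 1.2–100 nM (5-point, 72 h), 0.01% DMSO final. Lysates (2 μg protein) were immunoblotted for ERα with tubulin as loading control, ECL detection.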

[2] = molecular target: T1, ERα; experiment: ERE luciferase reporter gene assay in T47D-KBluc cells (target engagement); format: cell-based; design: T47D human breast cancer cells stably transfected with estrogen responsive element/promoter/luciferase reporter gene; host or cells: T47D-KBluc cells; details: 10% FBS, 24 hours, Table 2 VHL centric PROTACs, read-out: IC50
Summary of the method: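 PROTACs were tested at 12 concentrations from 300 nM down to 2 pM in 3-fold steps for 24 h on T47D-KBluc cells with a stable ERE-driven luciferase. Medium was RPMI with 10% FBS, measured at 10 pM estrogen. IC50 came from luminescence after lysis, in duplicate.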

Question: Which DC50 [1] does the source give for Cc1ncsc1-c1ccc([C@H](C)NC(=O)[C@@H]2C[C@@H](O)CN2C(=O)[C@@H](NC(=O)COCCOCCOCCOc2ccc(Oc3c(-c4ccc(Br)cc4)sc4cc(O)ccc34)cc2)C(C)(C)C)cc1 [Compound 126, (2S,4R)-1-((S)-14-(4-(2-(4-bromophenyl)-6-hydroxybenzo[b]thiophen-3-yloxy)phenoxy)-2-tert-butyl-4-oxo-6,9,12-trioxa-3-azatetradecane)-4-hydroxy-N-((S)-1-(4-(4-methylthiazol-5-yl)phenyl)ethyl)pyrrolidine-2-carboxamide] here?
Answer: The DC50 was < 1 nM.

Question: What about the Dmax [1] of the same compound?
Answer: The Dmax was > 75%.

Question: And the IC50 [2]?
Answer: Its IC50 is 0.2 nM.

Question: Which DC50 [1] does the source give for Cc1ncsc1-c1ccc([C@H](C)NC(=O)[C@@H]2C[C@@H](O)CN2C(=O)[C@@H](NC(=O)COCCOCCN(C)CCOc2ccc(Oc3c(-c4ccc(F)cc4)sc4cc(O)ccc34)cc2)C(C)(C)C)cc1 [Compound 128, (2S,4R)-1-[(2S)-2-[1-(4[[2-(4-fluorophenyl)-6-hydroxy-1-benzothiophen-3-yl]oxy]phenyl)-4-methyl-1,7,10-trioxa-4-azadodecan-12-amido]-3,3-dimethylbutanoyl]-4-hydroxy-N-[(1S)-1-[4-(4-methyl-1,3-thiazol-5-yl)phenyl]ethyl]pyrrolidine-2-carboxamide] here?
Answer: Its DC50 is < 1 nM.

Question: And the Dmax [1]?
Answer: Its Dmax is > 75%.

Question: What about the IC50 [2] of the same compound?
Answer: The IC50 was 0.3 nM.

Question: Which results are given for Cc1ncsc1-c1ccc(CNC(=O)[C@@H]2C[C@@H](O)CN2C(=O)[C@@H](NC(=O)COCCN2CCN(CCOc3ccc(Oc4c(-c5ccc(Br)cc5)sc5cc(O)ccc45)cc3)CC2)C(C)(C)C)cc1 [Compound 140, (2S,4R)-1-[(2S)-2-[2-(2-[4-[2-(4-[[2-(4-bromophenyl)-6-hydroxy-1-benzothiophen-3-yl]oxy]phenoxy)ethyl]piperazin-1-yl]ethoxy)acetamido]-3,3-dimethylbutanoyl]-4-hydroxy-N-[[4-(4-methyl-1,3-thiazol-5-yl)phenyl]methyl]pyrrolidine-2-carboxamide]?
Answer: DC50 [1]: 1 to 10 nM; Dmax [1]: > 75%; IC50 [2]: 11 nM

Question: Cc1ncsc1-c1ccc([C@H](C)NC(=O)[C@@H]2C[C@@H](O)CN2C(=O)[C@@H](NC(=O)COCCN2CCN(CCOc3ccc(Oc4c(-c5ccc(Br)cc5)sc5cc(O)ccc45)cc3)CC2)C(C)(C)C)cc1 [Compound 153, (2S,4R)-1-[(2S)-2-[2-(2-[4-[2-(4-[[2-(4-bromophenyl)-6-hydroxy-1-benzothiophen-3-yl]oxy]phenoxy)ethyl]piperazin-1-yl]ethoxy)acetamido]-3,3-dimethylbutanoyl]-4-hydroxy-N-[(1S)-1-[4-(4-methyl-1,3-thiazol-5-yl)phenyl]ethyl]pyrrolidine-2-carboxamide] was tested. Which DC50 [1] did it give?
Answer: The DC50 was 1 to 10 nM.

Question: And the Dmax [1]?
Answer: The Dmax was > 75%.

Question: And the IC50 [2]?
Answer: The IC50 was 3.2 nM.
